Legend:
[1] = target: T1, thymine DNA glycosylase (TDG) (Homo sapiens, UniProt Q13569); assay: molecular beacon screen with recombinant TDG, confirmed in radioactive DNA glycosylase assay; type: biochemical
[2] = target: T1, thymine DNA glycosylase (TDG); assay: radioactive DNA glycosylase assay with purified recombinant TDG; TDG/APE1 molecular beacon assay (dose-dependent); 5caC increase in cells; type: biochemical

T1 sequence (Q13569 whole entry): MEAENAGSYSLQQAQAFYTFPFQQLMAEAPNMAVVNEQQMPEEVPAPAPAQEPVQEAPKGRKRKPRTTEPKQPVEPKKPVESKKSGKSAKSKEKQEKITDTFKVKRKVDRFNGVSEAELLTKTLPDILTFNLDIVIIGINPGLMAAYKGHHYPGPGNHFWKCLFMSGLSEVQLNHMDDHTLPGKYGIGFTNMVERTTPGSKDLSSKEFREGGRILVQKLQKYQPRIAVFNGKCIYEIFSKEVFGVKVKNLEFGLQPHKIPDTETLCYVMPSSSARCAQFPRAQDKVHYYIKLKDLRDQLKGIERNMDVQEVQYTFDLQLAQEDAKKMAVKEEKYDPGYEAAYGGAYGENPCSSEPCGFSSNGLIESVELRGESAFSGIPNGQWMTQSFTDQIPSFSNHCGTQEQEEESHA

Structure (SMILES)	molecular beacon screen with recombinant TDG, confirmed in radioactive DNA glyco [1]	radioactive DNA glycosylase assay with purified recombinant TDG; TDG/APE1 molecu [2]
C=CC1=C(C(=O)O)N2C(=O)[C@@H](NC(=O)/C(=N\OCC(=O)O)c3csc(N)n3)[C@H]2SC1 [cefixime]	including closantel, juglone, and cefixime, were confirmed as TDG inhibitors in a standard, radioactive DNA glycosylase assay	–
Cc1cc(C(C#N)c2ccc(Cl)cc2)c(Cl)cc1NC(=O)c1cc(I)cc(I)c1O (stereo not drawn) [closantel]	–	including closantel, juglone, and cefixime, were confirmed as TDG inhibitors in a standard, radioactive DNA glycosylase assay
O=C1C=CC(=O)c2c(O)cccc21 [juglone]	–	including closantel, juglone, and cefixime, were confirmed as TDG inhibitors in a standard, radioactive DNA glycosylase assay

From publication PMC6563616, “Thymine DNA glycosylase as a novel target for melanoma” (Oncogene, 2019)
